15 compounds from patent publication US8754226B2, “Piperidinyl-substituted lactams as GPR119 modulators” (Array BioPharma Inc., priority 2010, dated 2014) can be followed below.

In the experiment the test system is modified version of the GPR119 receptor (94% identity to human receptor). The experiment can be described thus: cAMP production assay (LANCE cAMP kit, TR-FRET) in HEK-293 cells. In kind it is cell-based. The conditions noted are these: for cAMP production in HEK-293 cells: HEK-293 cells stably expressing modified GPR119, test compounds 0.2 nM to 10 μM, one-hour incubation at ambient temperature; for Fold over baseline: increase in cAMP relative to basal levels, agonist activity if 1.5-fold or greater. In outline:
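Doxycycline-induced (1 μg/mL, overnight) HEK-293 cells expressing modified GPR119 were thawed, 2000 cells/well, and exposed to compounds (0.2 nM-10 μM final, 0.5% DMSO) for 1 h at ambient temperature in HBSS/HEPES/BSA. cAMP was measured by LANCE TR-FRET against a standard curve. Agonism was defined as ≥1.5-fold over basal.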

SMILES strings stand for the structures.

Consider `N#Cc1ccc(N[C@H]2CCN(C3CCN(c4ncc(C(F)(F)F)cc4Cl)CC3)C2=O)c(F)c1` [Example 152, (S)-4-(1-(1-(3-chloro-5-(trifluoromethyl)pyridin-2-yl)piperidin-4-yl)-2-oxopyrrolidin-3-ylamino)-3-fluorobenzonitrile], for which the “cAMP production in HEK-293 cells” value is 26.6 nmol and the Fold over baseline was 3.3.
Turning to `O=C(c1ccc(O[C@H]2CCN(C3CCN(c4ncc(Cl)cc4F)CC3)C2=O)c(F)c1)N1CC[C@H](O)C1` [Example 153, (S)-1-(1-(5-chloro-3-fluoropyridin-2-yl)piperidin-4-yl)-3-(2-fluoro-4-((S)-3-hydroxypyrrolidine-1-carbonyl)phenoxy)pyrrolidin-2-one], the “cAMP production in HEK-293 cells” value is 14.3 nmol and the Fold over baseline stood at 3.1.
On to `CN(CCO)C(=O)c1ccc(O[C@H]2CCN(C3CCN(c4ncc(Cl)cc4F)CC3)C2=O)c(F)c1` [Example 154, (S)-4-(1-(1-(5-chloro-3-fluoropyridin-2-yl)piperidin-4-yl)-2-oxopyrrolidin-3-yloxy)-3-fluoro-N-(2-hydroxyethyl)-N-methylbenzamide], for which the “cAMP production in HEK-293 cells” value is 14.6 nmol and the Fold over baseline came out at 3.1.
The matching figures for `O=C(c1ccc(O[C@H]2CCN(C3CCN(c4ncc(Cl)cc4F)CC3)C2=O)c(F)c1)N1CC[C@@H](O)C1` [Example 155, (S)-1-(1-(5-chloro-3-fluoropyridin-2-yl)piperidin-4-yl)-3-(2-fluoro-4-((R)-3-hydroxypyrrolidine-1-carbonyl)phenoxy)pyrrolidin-2-one]: 13.4 nmol and 2.5.
On to `CS(=O)(=O)c1ccc(N[C@H]2CCN(C3CCN(c4ncc(CO)cc4Cl)CC3)C2=O)c(F)c1` [Example 156, (S)-1-(1-(3-chloro-5-(hydroxymethyl)pyridin-2-yl)piperidin-4-yl)-3-(2-fluoro-4-(methylsulfonyl)phenylamino)pyrrolidin-2-one], for which the “cAMP production in HEK-293 cells” value is 17.3 nmol and the Fold over baseline is reported as 2.3.
Take `CN(C)C(=O)c1cnc(N2CCC(N3CC[C@H](Nc4ccc(S(C)(=O)=O)cc4F)C3=O)CC2)c(Cl)c1` [Example 157, (S)-5-chloro-6-(4-(3-(2-fluoro-4-(methylsulfonyl)phenylamino)-2-oxopyrrolidin-1-yl)piperidin-1-yl)-N,N-dimethylnicotinamide]: the “cAMP production in HEK-293 cells” value amounted to 8.3 nmol and the Fold over baseline was determined as 3.1.
With `CS(=O)(=O)c1ccc(N[C@H]2CCN(C3CCN(c4cnc(C(F)(F)F)nc4)CC3)C2=O)c(F)c1` [Example 158, (S)-3-(2-fluoro-4-(methylsulfonyl)phenylamino)-1-(1-(2-(trifluoromethyl)pyrimidin-5-yl)piperidin-4-yl)pyrrolidin-2-one], the “cAMP production in HEK-293 cells” value stood at 12.5 nmol and the Fold over baseline is recorded as 3.2.
As for `CCc1ncc(N2CCC(N3CC[C@H](Nc4ccc(S(C)(=O)=O)cc4F)C3=O)CC2)cn1` [Example 159, (S)-1-(1-(2-ethylpyrimidin-5-yl)piperidin-4-yl)-3-(2-fluoro-4-(methylsulfonyl)phenylamino)pyrrolidin-2-one], the “cAMP production in HEK-293 cells” value was 8.0 nmol and the Fold over baseline is given as 2.0.
For the compound `COc1cnc(N2CCC(N3CC[C@H](Nc4ccc(S(C)(=O)=O)cc4F)C3=O)CC2)cn1` [Example 160, (S)-3-(2-fluoro-4-(methylsulfonyl)phenylamino)-1-(1-(5-methoxypyrazin-2-yl)piperidin-4-yl)pyrrolidin-2-one], the “cAMP production in HEK-293 cells” value was determined as 22.3 nmol and the Fold over baseline was 3.9.
Regarding `CS(=O)(=O)c1ccc(N[C@H]2CCN(C3CCN(c4ncc(Cl)nc4Cl)CC3)C2=O)cn1` [Example 161, (S)-1-(1-(3,5-dichloropyrazin-2-yl)piperidin-4-yl)-3-(6-(methylsulfonyl)pyridin-3-ylamino)pyrrolidin-2-one], the “cAMP production in HEK-293 cells” value was 13.8 nmol and the Fold over baseline worked out at 3.6.
The corresponding values for `CC1(C)CN(c2cnc(Cl)cn2)CCC1N1CC[C@H](Nc2ccc(S(C)(=O)=O)cc2F)C1=O` (stereo partly drawn) [Example 162, (3S)-1-(1-(5-chloropyrazin-2-yl)-3,3-dimethylpiperidin-4-yl)-3-(2-fluoro-4-(methylsulfonyl)phenylamino)pyrrolidin-2-one] are 16.2 nmol and 2.8.
As to `CS(=O)(=O)c1cc(F)c(O[C@H]2CCCN(C3CCN(c4ncc(C(F)(F)F)cc4F)CC3)C2=O)cc1F` [Example 163, (S)-3-(2,5-difluoro-4-(methylsulfonyl)phenoxy)-1′-(3-fluoro-5-(trifluoromethyl)pyridin-2-yl)-[1,4′-bipiperidin]-2-one], the “cAMP production in HEK-293 cells” value is 18.3 nmol and the Fold over baseline turned out to be 3.9.
The corresponding values for `CS(=O)(=O)c1cc(F)c(O[C@H]2CCCN(C3CCN(c4cnc(Cl)cn4)CC3)C2=O)cc1F` [Example 164, (S)-1′-(5-chloropyrazin-2-yl)-3-(2,5-difluoro-4-(methylsulfonyl)phenoxy)-[1,4′-bipiperidin]-2-one] are 21.6 nmol and 4.3.
In the case of `CCc1cnc(N2CCC(N3CCC[C@H](Oc4cc(F)c(S(C)(=O)=O)cc4F)C3=O)CC2)nc1` [Example 165, (S)-3-(2,5-difluoro-4-(methylsulfonyl)phenoxy)-1′-(5-ethylpyrimidin-2-yl)-[1,4′-bipiperidin]-2-one], the “cAMP production in HEK-293 cells” value came to 16.0 nmol and the Fold over baseline turned out to be 3.2.
For `CS(=O)(=O)c1cc(F)c(O[C@H]2CCN(C3CCN(c4ncc(C(F)(F)F)cc4F)CC3)C2=O)cc1F` [Example 166, (S)-3-(2,5-difluoro-4-(methylsulfonyl)phenoxy)-1-(1-(3-fluoro-5-(trifluoromethyl)pyridin-2-yl)piperidin-4-yl)pyrrolidin-2-one], the “cAMP production in HEK-293 cells” value is 15.3 nmol and the Fold over baseline turned out to be 3.6.
